Results reported in patent US6664242B2 (priority 2000, dated 2003).
Like-named read-outs stand apart in the source and are kept apart here.

Key:
[1] = system: early stage HCT-116 colon carcinoma
Description: (§1) This efficacy may be quantified, for example by the log10 cells killed, which is determined by the following formula:
(§2) log10 cell killed=T-C(days)/3.32×Td
(§3) A product is considered to be active if the log10 cell kill is greater than or equal to 0.7. A product is considered to be very active is the log10 cell kill is greater than 2.8.
Three dosage levels of capecitabine were given alone on days 18-22 and 25-29. In the combination arm, two semi-simultaneous schedules were investigated.

[2] = system: human colon carcinoma strain HCT-116; conditions: for Comments / Log10 cell Kill / T-C (Tumor Growth Delay): days 5-9, 12-16; for activity at the maximum tolerated dose: maximum tolerated doses, p.o., HCT-116 in Swiss-nude mice
Description: as §1, §2, §3

[3] = system: metastatic colorectal cancer; conditions: oral capecitabine, first-line, phase III; cited from earlier work
[4] = CPT-11 60 mg/kg/adm p.o., days 18-22
[5] = CPT-11 96 mg/kg/adm p.o., days 18-22
[6] = capecitabine 443 mg/kg/adm p.o., days 18-22 & 25-29
[7] = capecitabine 713 mg/kg/adm p.o., days 18-22 & 25-29
[8] = capecitabine 1150 mg/kg/adm p.o., days 18-22 & 25-29
[9] = capecitabine 443 mg/kg/adm p.o.
[10] = capecitabine 713 mg/kg/adm p.o.

## irinotecan [CPT-11]
[1]; [4]
  Comments: Active
  Log10 cell Kill: 1.7
  T-C (Tumor Growth Delay): 21.4 days
[1]; [5]
  Comments: HNTD
  Log10 cell Kill: 1.7
  T-C (Tumor Growth Delay): 21.3 days
[1]; CPT-11 155 mg/kg/adm p.o., days 18-22
  Comments: Toxic
[2]; CPT-11 29 mg/kg/adm p.o.
  Comments: Active
  Log10 cell Kill: 2.1
  T-C (Tumor Growth Delay): 30.1 days
[2]; CPT-11 48 mg/kg/adm p.o.
  Comments: HNTD
[2]; CPT-11 80 mg/kg/adm p.o.
  Comments: Toxic
[2]
  activity at the maximum tolerated dose: highly active

## CCCCCOC(=O)Nc1nc(=O)n([C@@H]2O[C@H](C)[C@@H](O)[C@H]2O)cc1F [capecitabine, 5′-deoxy-5-fluoro-N-[(pentyloxy)-carbonyl]-cytidine]
[3]
  efficacy compared with i.v. 5-FU/leucovorin (Mayo Clinic regimen): superior response rate and at least equivalent survival and time to disease progression
  safety profile compared with the Mayo Clinic regimen: more favourable safety profile
[1]; [6]
  Comments: Active
  Log10 cell Kill: 2.1
  T-C (Tumor Growth Delay): 26.1 days
[1]; [7]
  Comments: Active
  Log10 cell Kill: 2.1
  T-C (Tumor Growth Delay): 25.2 days
[1]; [8]
  Log10 cell Kill: 3.2
  T-C (Tumor Growth Delay): 39.4 days
[2]; [9]
  Comments: Active
  Log10 cell Kill: 1.1
  T-C (Tumor Growth Delay): 16.3 days
[2]; [10]
  Comments: Active
  Log10 cell Kill: 2.6
  T-C (Tumor Growth Delay): 38.7 days
[2]
  activity at the maximum tolerated dose: highly active
